{"source": "paper PMC7238799", "about": "(Pulmonary Circulation, 2020)", "origin": "cited, not measured here", "key": {"[1]": {"system": "prostacyclin (IP) receptor", "details": "cited from earlier work"}, "[2]": {"details": "cited from earlier work; for Steady-state PTR / Half-life: oral"}, "healthy male subjects": {"system": "healthy male subjects", "details": "from 400 µg BID up to 1600–1800 µg BID; cited from earlier work"}, "[3]": {"details": "BID oral administration of selexipag"}}, "note": "Like-named read-outs stand apart in the source and are kept apart here."}
{"molecule": "CC#CCC(C)[C@H](O)/C=C/[C@@H]1[C@H]2C/C(=C/CCCC(=O)O)C[C@H]2C[C@H]1O", "note": "(stereo partly shown) [iloprost]", "values": [{"measurement": "Maximal cAMP stimulation (efficacy percentage relative to iloprost)", "setting": "[1]", "value": 100, "unit": "%"}, {"measurement": "Type of IP receptor agonism", "setting": "[1]", "value": "full agonist"}]}
{"molecule": "CCCCC[C@H](O)CC[C@@H]1[C@H]2Cc3cccc(OCC(=O)O)c3C[C@H]2C[C@H]1O", "note": "[treprostinil]", "values": [{"measurement": "Steady-state PTR", "setting": "[2]; BID dosing", "value": 7.0}, {"measurement": "Steady-state PTR", "setting": "[2]; TID dosing", "value": 2.5}, {"measurement": "Half-life", "setting": "[2]; administered two or three times daily", "value": "3 to 4", "unit": "h"}]}
{"molecule": "CC(C)N(CCCCOCC(=O)NS(C)(=O)=O)c1cnc(-c2ccccc2)c(-c2ccccc2)n1", "note": "[selexipag]", "values": [{"measurement": "Treated subjects achieving full dose escalation", "setting": "healthy male subjects", "value": "67–81%"}]}
{"molecule": "CC(C)N(CCCCOCC(=O)O)c1cnc(-c2ccccc2)c(-c2ccccc2)n1", "note": "[ACT-333679]", "values": [{"measurement": "Accumulation at steady-state", "setting": "[2]; [3]", "value": "1.02–1.27 fold"}, {"measurement": "Mean steady-state PTR", "setting": "[2]; [3]", "value": "5.6–6.5"}, {"measurement": "Effective half-life (EHL)", "setting": "[2]; active metabolite of selexipag", "value": "3 to 4", "unit": "h"}, {"measurement": "Terminal elimination half-life", "setting": "[2]; active metabolite of selexipag", "value": "6.2 to 13.5", "unit": "h"}, {"measurement": "Maximal cAMP stimulation (efficacy percentage relative to iloprost)", "setting": "[1]", "value": 48, "unit": "%"}, {"measurement": "Type of IP receptor agonism", "setting": "[1]", "value": "weak partial agonist"}]}
{"molecule": "CC#CCC(C)[C@H](O)/C=C/[C@@H]1[C@H]2c3cccc(CCCC(=O)O)c3O[C@H]2C[C@H]1O", "note": "(mixture of isomers) [beraprost]", "values": [{"measurement": "Half-life", "setting": "[2]; administered four times daily", "value": 0.75, "unit": "h"}]}
